Experimental data: ChEMBL document CHEMBL1155342, “Design, synthesis and analgesic properties of novel conformationally-restricted N-acylhydrazones (NAH)” (2009)

How the values were obtained:
Mus musculus [1] = test: Antinociceptive activity in mouse assessed as inhibition of acetic acid-induced abdominal constrictions at 100 umol/kg, po relative to untreated control; assay type: functional; settings: Abdomen
Mus musculus [2] = test: Antinociceptive activity in po dosed mouse assessed as inhibition of acetic acid-induced abdominal constrictions; assay type: functional; settings: Abdomen

Compound | inhibition in vivo at 100 µmol/kg (Mus musculus [1]) | ED50 (Mus musculus [2])
COc1ccc(C(=O)N/N=C/c2ccccc2)cc1 | 54% | 9.2 µmol/kg
COc1ccc(-c2nnc3ccc(-c4ccccc4)nn23)cc1 | 22% | 
COc1ccc(C(=O)N(C)/N=C/c2ccccc2)cc1 | 50% | 5.9 µmol/kg
COC1=CC2N=CN=C(N/N=C/c3ccccc3)C2C=C1 (centres undefined) | 28% | 
COc1ccc2c(=O)n(/N=C/c3ccccc3)cnc2c1 | 48% | 4.2 µmol/kg
COc1ccc(C(=O)n2nc(-c3ccccc3)cc2C)cc1 | 50% | 5.1 µmol/kg
COc1ccc2c(c1)CC(c1ccccc1)=NNC2=O | 36% | 
CC(=O)Nc1ccc(O)cc1 [ACETAMINOPHEN] | 36% | 
COc1ccc2c(c1)c(CC(=O)O)c(C)n2C(=O)c1ccc(Cl)cc1 [INDOMETHACIN] | 42% | 56.2 µmol/kg
